{"source": "patent US20140073637A1", "about": "“AMINO-SUBSTITUTED-ALKYLOXY-BENZO[E]PYRIDO[4,3-B]INDOLE DERIVATIVES AS NEW POTENT KINASE INHIBITORS” (INSTITUT CURIE, priority 2011, published 2014)", "tested_on": "H358 spheroids", "assay": "Multicellular tumour spheroid (MTS) growth", "assay_type": "cell-based", "description": "H358 cells were cultured in 3-Dimensions. At day 1, the compound was added at the concentration of 0.6 μM. The spheroid growth was measured each day and expressed as a growth ratio (Vd−Vo/Vo); d for day and o for the starting day. The evolution of the volume of the spheroids is expressed in function of the time (in days). Spheroids grown in the presence of C1 are indicated by triangles whereas rectangles indicate spheroids treated by C14; control spheroids are visualized by diamonds.\nIn order to get some insight in C14 effects towards organized cells, the inventors have followed H358 spheroid expansion (FIG. 9). Organized 3-dimension spheroids were treated by either C14 (0.5 μM) or C1 (0.5 μM) or DMSO (control). […] C14 was thus found efficient to prevent cell growth even when cells mimicked tissue organization.\nThe inventors applied the hanging-drop method to produce H358 spheroids of similar diameters. 1400 cells were suspended on the lid of an agar coated 24-petri dishes containing culture medium. 48 h later, the spheroids were transferred to the culture medium. Spheroid volumes were measured before (Day 0) and during the drug treatment (Day N). H358 spheroids were treated by compounds at the concentration of 0.6 μM. Control H358 spheroids were grown under the same conditions without drug treatment. The size of each spheroid was determined by measuring 2 diameters (d1 and d2) using an inverted microscope. The volume was calculated according to the formula: V=4/3π^3 where r=½√d1xd2. Spheroid growth was calculated by measuring the variations in volume and compared to the initial volume V0. The growth ratio was defined as (Vd−Vo)/Vo. Data are the mean of at least three determinations on different spheroids."}
{"smiles": "Cc1c[nH]c(=O)c2c1[nH]c1ccc3cc(OCCN(C)C)ccc3c12", "note": "[Compound C14, 3-(2-N,N-Dimethylaminoethoxy)-8-methyl-7H,10H-benzo[e]pyrido(4,3-b)indol-11-one]", "values": [{"measurement": "duration of effect on spheroid growth", "setting": "0.5 μM, 0.6 μM", "result": "at least 5 days"}, {"measurement": "effect on 3D-H358 cell (spheroid) growth (in words)", "setting": "0.5 μM, 0.6 μM", "result": "affected significantly"}, {"measurement": "spheroid size at day 10 (in words)", "setting": "day 10, compared with C1-treated spheroids", "result": "smaller than their counterparts treated by C1"}]}
